≈ marks a conversion by molar mass, not a printed value. Calls of active or inactive are those of the source. The rule behind the calls is not given here.
Experiments:
[1] = Cytotoxicity against human OVCAR-3 cells assessed as inhibition of cell growth incubated for 72 hrs by MTT assay; assay type: toxicity, cell-based
Candida albicans [2] = test: Antifungal activity against Candida albicans GIM 2.194 assessed as inhibition of fungal growth by CLSI M27-A3 guidelines based method; assay type: functional
Candida albicans [3] = test: Effect on sterol composition in Candida albicans SC5314 assessed as other sterols content at 1 microg/ml measured after 16 hrs by GC-MS analysis (reference value: 1.06 %); assay type: functional; details: dose 1 µg/ml
Candida albicans [4] = test: Fungicidal activity against fluconazole and iodiconazole resistant Candida albicans clinical isolate 17# incubated for 48 hrs by SDA plate based method; assay type: functional
Cryptococcus neoformans = test: Antifungal activity against Cryptococcus neoformans CGMCC 2.3161 assessed as inhibition of fungal growth by CLSI M27-A3 guidelines based method; assay type: functional
Nakaseomyces glabratus = test: Antifungal activity against Candida glabrata assessed as inhibition of fungal growth by CLSI M27-A3 guidelines based method; assay type: functional
Candida albicans [5] = test: Effect on sterol composition in Candida albicans SC5314 assessed as ergosterol content at 1 microg/ml measured after 16 hrs by GC-MS analysis (reference value: 96.96 %); assay type: functional; details: dose 1 µg/ml
Candida albicans [6] = test: Antifungal activity against fluconazole and iodiconazole resistant Candida albicans clinical isolate 17# assessed as inhibition of fungal growth by CLSI M27-A3 guidelines based method; assay type: functional
Candida albicans [7] = test: Antifungal activity against Candida albicans SC5314 assessed as inhibition of fungal growth by CLSI M27-A3 guidelines based method; assay type: functional
[8] = Cytotoxicity against HUVEC cells assessed as inhibition of cell growth incubated for 72 hrs by MTT assay; assay type: toxicity, cell-based; details: human
Candida albicans [9] = test: Effect on sterol composition in Candida albicans SC5314 assessed as eburicol content at 1 microg/ml measured after 16 hrs by GC-MS analysis relative to control; assay type: functional; details: dose 1 µg/ml
Candida albicans [10] = test: Effect on sterol composition in Candida albicans SC5314 assessed as obtusifoliol content at 1 microg/ml measured after 16 hrs by GC-MS analysis relative to control; assay type: functional; details: dose 1 µg/ml
Candida albicans [11] = test: Antifungal activity against fluconazole-resistant Candida albicans clinical isolate 103 assessed as inhibition of fungal growth by CLSI M27-A3 guidelines based method; assay type: functional
Candida albicans [12] = test: Antibiofilm activity against fluconazole-resistant Candida albicans CPCC400616 assessed as inhibition of metabolic activity of biofilm measured after 48 hrs by XTT reduction assay; assay type: functional
Candida albicans [13] = test: Fungicidal activity against Candida albicans SC5314 incubated for 48 hrs by SDA plate based method; assay type: functional
Candida albicans [14] = test: Antibiofilm activity against fluconazole-resistant Candida albicans CPCC400616 assessed as inhibition of metabolic activity of biofilm measured after 6 hrs by XTT reduction assay; assay type: functional
Candida tropicalis = test: Antifungal activity against Candida tropicalis GIM 2.183 assessed as inhibition of fungal growth by CLSI M27-A3 guidelines based method; assay type: functional
Candida albicans [15] = test: Antifungal activity against fluconazole-resistant Candida albicans clinical isolate 632 assessed as inhibition of fungal growth by CLSI M27-A3 guidelines based method; assay type: functional
Candida albicans [16] = test: Antifungal activity against fluconazole-resistant Candida albicans clinical isolate 311 assessed as inhibition of fungal growth by CLSI M27-A3 guidelines based method; assay type: functional
Candida parapsilosis = test: Antifungal activity against Candida parapsilosis GIM 2.190 assessed as inhibition of fungal growth by CLSI M27-A3 guidelines based method; assay type: functional; details: Lodderomyces parapsilosis
Candida albicans [17] = test: Antibiofilm activity against Candida albicans CPCC400616 assessed as inhibition of morphological transformation by measuring disappearance of mycelium at 2 microg/ml incubated for 4 hrs by microscopic photograph analysis; assay type: functional, organism-based; details: dose 2.0 µg/ml
Candida albicans [18] = test: Antibiofilm activity against fluconazole-resistant Candida albicans CPCC400616 assessed as inhibition of metabolic activity of biofilm measured after 24 hrs by XTT reduction assay; assay type: functional
Pichia kudriavzevii = test: Antifungal activity against Candida krusei GIM 2.1 assessed as inhibition of fungal growth by CLSI M27-A3 guidelines based method; assay type: functional
[19] = Cytotoxicity against human NCI-H460 cells assessed as inhibition of cell growth incubated for 72 hrs by MTT assay; assay type: toxicity, cell-based
Candida albicans [20] = test: Antifungal activity against fluconazole-resistant Candida albicans CaR assessed as inhibition of fungal growth by CLSI M27-A3 guidelines based method; assay type: functional
Candida albicans [21] = test: Effect on sterol composition in Candida albicans SC5314 assessed as lanosterol content at 1 microg/ml measured after 16 hrs by GC-MS analysis relative to control; assay type: functional; details: dose 1 µg/ml
Candida albicans [22] = test: Antifungal activity against fluconazole-resistant Candida albicans clinical isolate 904 assessed as inhibition of fungal growth by CLSI M27-A3 guidelines based method; assay type: functional
Candida albicans [23] = test: Antifungal activity against fluconazole-resistant Candida albicans clinical isolate 901 assessed as inhibition of fungal growth by CLSI M27-A3 guidelines based method; assay type: functional
[24] = Cytotoxicity against HEK293T cells assessed as inhibition of cell growth incubated for 72 hrs by MTT assay; assay type: toxicity, cell-based, HEK-293T; details: human
Candida albicans [25] = test: Effect on sterol composition in Candida albicans SC5314 assessed as 14alpha-demethyllanosterol content at 1 microg/ml measured after 16 hrs by GC-MS analysis (reference value: 1.98 %); assay type: functional; details: dose 1 µg/ml
Candida albicans [26] = test: Antifungal activity against fluconazole-resistant Candida albicans clinical isolate 100 assessed as inhibition of fungal growth by CLSI M27-A3 guidelines based method; assay type: functional
Candida albicans [27] = test: Selectivity ratio of MFC for fungicidal activity against Candida albicans SC5314 to MIC80 for antifungal activity against Candida albicans SC5314; assay type: functional
Candida albicans [28] = test: Selectivity ratio of MFC for fungicidal activity against fluconazole and iodiconazole resistant Candida albicans clinical isolate 17# to MIC80 for antifungal activity against fluconazole and iodiconazole resistant Candida albicans clinical isolate 17#; assay type: functional

Compound | IC50 at 72 h [1] | MIC80 (Candida albicans [2]) | MFC (Candida albicans [4]) | MIC80 (Cryptococcus neoformans) | MIC80 (Nakaseomyces glabratus) | MIC80 (Candida albicans [6]) | MIC80 (Candida albicans [7]) | IC50 at 72 h [8] | MIC80 (Candida albicans [11]) | MIC50 (Candida albicans [12]) | MFC (Candida albicans [13]) | MIC50 (Candida albicans [14]) | MIC80 (Candida tropicalis) | MIC80 (Candida albicans [15]) | MIC80 (Candida albicans [16]) | MIC80 (Candida parapsilosis) | Activity (Candida albicans [17]) | MIC50 (Candida albicans [18]) | MIC80 (Pichia kudriavzevii) | IC50 at 72 h [19] | also measured
OC(Cn1cncn1)(Cn1cncn1)c1ccc(F)cc1F [FLUCONAZOLE] | > 40 µM | 0.5 µg/mL (≈ 1.63 µM) | > 64 µg/mL | 4 µg/mL (≈ 13.1 µM) | 8 µg/mL (≈ 26.1 µM) | > 64 µg/mL | 0.25 µg/mL (≈ 0.816 µM) | > 40 µM | > 64 µg/mL | > 32 µg/mL | > 64 µg/mL | 16 µg/mL (≈ 52.2 µM) | 0.25 µg/mL (≈ 0.816 µM) | > 64 µg/mL | > 64 µg/mL | 1 µg/mL (≈ 3.27 µM) | Not active; Oval Shaped Yeast Phase Fungi Observed | > 32 µg/mL | 8 µg/mL (≈ 26.1 µM) | > 40 µM | Activity (Candida albicans [3]): 8.64%; Activity (Candida albicans [5]): 4.57%; Activity (Candida albicans [9]): 60.09%; Activity (Candida albicans [10]): 14.37%; MIC80 (Candida albicans [20]): > 64 µg/mL; Activity (Candida albicans [21]): 9.3%; MIC80 (Candida albicans [22]): > 64 µg/mL; MIC80 (Candida albicans [23]): > 64 µg/mL; IC50 at 72 h [24]: > 40 µM; Activity (Candida albicans [25]): 3.03%; MIC80 (Candida albicans [26]): > 64 µg/mL
CN(Cc1ccc(I)cc1)CC(O)(Cn1cncn1)c1ccc(F)cc1F (stereo not drawn) | > 10 µM | 0.025 µg/mL (≈ 0.0516 µM) | 32 µg/mL (≈ 66.1 µM) | 0.1 µg/mL (≈ 0.206 µM) | 0.2 µg/mL (≈ 0.413 µM) | 0.25 µg/mL (≈ 0.516 µM) | 0.013 µg/mL (≈ 0.0268 µM) | > 10 µM | 32 µg/mL (≈ 66.1 µM) | > 32 µg/mL | 32 µg/mL (≈ 66.1 µM) | 8 µg/mL (≈ 16.5 µM) | 0.013 µg/mL (≈ 0.0268 µM) | 16 µg/mL (≈ 33 µM) | > 64 µg/mL | 0.025 µg/mL (≈ 0.0516 µM) | Active | 16 µg/mL (≈ 33 µM) | 0.2 µg/mL (≈ 0.413 µM) | > 10 µM | Selectivity ratio (Candida albicans [27]): >256; Selectivity ratio (Candida albicans [28]): 128; MIC80 (Candida albicans [20]): 2 µg/mL (≈ 4.13 µM); MIC80 (Candida albicans [22]): 8 µg/mL (≈ 16.5 µM); MIC80 (Candida albicans [23]): > 64 µg/mL; IC50 at 72 h [24]: > 10 µM; MIC80 (Candida albicans [26]): 2 µg/mL (≈ 4.13 µM)
